Patent US7998754B2, “In vitro method for the simultaneous detection and identification of antibiotics of different classes and corresponding diagnostic kit” (Unisensor S.A., priority 2005, dated 2011)
Read-outs that look alike come from different tables or passages of the source.

What was measured:
β-lactame receptor (RSA) [1] = target: T1, β-lactame receptor (RSA) (Staphylococcus aureus, UniProt P18357); type: binding; conditions: milk; for Ratio test/control: at the detection limit concentration; for Concentration detection limit: β-lactames, three-parameter test
T1 construct: made in house
T1 sequence (P18357 331-585 limits assumed): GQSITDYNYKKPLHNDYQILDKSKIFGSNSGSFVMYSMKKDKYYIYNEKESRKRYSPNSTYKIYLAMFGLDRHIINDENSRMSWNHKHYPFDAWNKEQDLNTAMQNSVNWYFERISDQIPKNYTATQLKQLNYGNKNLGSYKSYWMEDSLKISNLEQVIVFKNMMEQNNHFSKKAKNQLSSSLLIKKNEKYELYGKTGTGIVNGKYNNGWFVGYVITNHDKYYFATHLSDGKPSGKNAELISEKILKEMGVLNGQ
Method: This mixture is prepared either as required or lyophilisated for 20 hours. The Recovery System
The other capture zones are identical but differently positioned, as in FIG. 2.
A single control zone serves as a reference for the three markers.
(§1) 200 μL of cold milk are incubated at 50° C. in the presence of 50 μl of the reagents prepared and/or lyophilisated as above. After 3 minutes of incubation at 50° C., the above-described recovery element is immersed in the solution. The final interpretation is made after 3 minutes of incubation by means of an optical dipstick reader available at Matest (Germany).
As a general rule, if the ratio of the intensities of the concerned test signal relative to the control signal is less than or equal to 1, the sample is considered as positive for the parameter (compound) concerned.

[2] = cited from earlier work; for MRL/EU: maximum residue level, European Union
β-lactame receptor (RSA) [3] = target: T1, β-lactame receptor (RSA); type: binding; conditions: milk; for Intensity ratio of parameter/control zone: at the detection limit concentration; for Detection limit: Concentration: β-lactames, positive when ratio test/control <= 1
Text: (§2) For the detection of β-lactames, the reactive mixture comprises the specific receptor for recognising β-lactames, its specific antibody and a preparation of protein A conjugated with colloidal gold. For the detection of tetracyclines, the reactive mixture comprises the receptor of the tetracyclines, its specific antibody, a specific fragment of DNA conjugated with biotin and a preparation of protein A conjugated with colloidal gold.
(§3) The β-lactame receptor is obtained by the method described by Golemi-Kotra et al.^(6) The unpurified receptor is filtered on a Millex HV membrane (Millipore, Inc., USA) before it is stored at 4° C. in the presence of glycerol at 50% v/v.
(§4) This mixture is either prepared as required or lyophilisated for 20 hours. The Recovery System
(§5) The recovery system comprises a nitrocellulose membrane on which are fixed, at distinct points, the elements capable of forming a complex with the recognition molecules of the reactive mixture. These elements are: • for the “beta” signal (for β-lactame), an antibiotic, preferably of penicillin or cephalosporine type, fixed to a molecule with no particular reactivity to protein A, biotin or avidine. […] An egg-white avidine is preferably used.
(§6) In the case of a detection of two parameters, the preparations of β-lactoglobulin and avidine will be deposited on each side of the control line. For example, the β-lactoglobulin conjugate already prepared will be deposited below the control line and the neutralized avidine solution will be deposited above the control line (FIG. 1).
as §1, with “(Germany);” for “(Germany).”
(§7) As a general rule, when the ratio of the intensities of the concerned test signal relative to the control signal is less than or equal to 1, the sample is considered positive for the parameter (compound) concerned.

[4] = test system: tetracycline receptor (TetR); assay: Example 1 dipstick test in milk, "tetra" capture zone (format 1); type: binding, E. Coli
Text: In addition, the recovery system is a specific and biotinylated fragment of DNA that can be fixed on a molecule of avidine attached to a nitrocellulose membrane. […] In this case, the fragment of DNA forms a complex with the receptor and a signal generated by the gold particles attached to the receptor appears.
as §2, §3
The DNA fragment is obtained at Eurogentec SA, Belgium according to the sequence and preparation described in patent application WO-A-03/048770. In this precise case, the DNA fragment is not fixed to a capture point on a nitrocellulose membrane but it is directly incorporated into the reactive mixture. This fragment will be recovered in testo by means of its biotinylated end on avidine fixed to a capture point (see below).
as §4, §5, §6
as §1, with “(Germany);” for “(Germany).”
as §7

Compound	Ratio test/control (β-lactame receptor (RSA) [1])	Concentration detection limit (β-lactame receptor (RSA) [1]) [ppb]	Safe level/US [2] [ppb]	MRL/EU [2] [ppb]	Intensity ratio of parameter/control zone (β-lactame receptor (RSA) [3])	Detection limit: Concentration (β-lactame receptor (RSA) [3]) [ppb]	also measured
CC(=O)OCC1=C(C(=O)O)N2C(=O)[C@@H](NC(=O)CSc3ccncc3)[C@H]2SC1 [Cephapyrin]	0.3	8	20	60	0.3	8	–
CN(C)[C@@H]1C(O)=C(C(N)=O)C(=O)[C@@]2(O)C(O)=C3C(=O)c4c(O)ccc(Cl)c4[C@@](C)(O)[C@H]3C[C@@H]12 [Chlortetracycline]	–	–	300	100	–	–	–
CC1(C)S[C@@H]2[C@H](NC(=O)Cc3ccccc3)C(=O)N2[C@H]1C(=O)O [Benzylpenicillin]	–	2	–	–	–	2	–
CN(C)[C@@H]1C(O)=C(C(N)=O)C(=O)[C@@]2(O)C(O)=C3C(=O)c4c(O)cccc4[C@@](C)(O)[C@H]3C[C@@H]12 [Tetracycline]	–	–	300	100	–	–	–
C[C@H]1c2cccc(O)c2C(=O)C2=C(O)[C@]3(O)C(=O)C(C(N)=O)=C(O)[C@@H](N(C)C)[C@@H]3[C@@H](O)[C@@H]21 [Doxycycline]	–	–	300	100	–	–	–
Cloxacycline	0.5	10	10	30	0.5	10	–
CN(C)[C@@H]1C(O)=C(C(N)=O)C(=O)[C@@]2(O)C(O)=C3C(=O)c4c(O)cccc4[C@@](C)(O)[C@H]3[C@H](O)[C@@H]12 [Oxytetracycline]	–	–	300	100	–	–	–
CO/N=C(\C(=O)N[C@@H]1C(=O)N2C(C(=O)O)=C(CSC(=O)c3ccco3)CS[C@H]12)c1csc(N)n1 [Ceftiofur]	0.5	10	50	100	0.5	10	–
CC1(C)S[C@@H]2[C@H](NC(=O)[C@H](N)c3ccc(O)cc3)C(=O)N2[C@H]1C(=O)O [Amoxicillin]	0.4	4	10	4	0.4	4	–
CC1(C)S[C@@H]2[C@H](NC(=O)[C@H](N)c3ccccc3)C(=O)N2[C@H]1C(=O)O [Ampicillin]	–	4	–	–	–	4	Intensity: zone B (β-lactame receptor (RSA) [3]; Ampi 1 ppb): 380; Intensity: zone B (β-lactame receptor (RSA) [3]; Ampi 2 ppb): 250; Intensity: zone B (β-lactame receptor (RSA) [3]; Ampi 3 ppb): 155; Intensity: zone B (β-lactame receptor (RSA) [3]; Ampi 4 ppb + Tetra 75 ppb together): 122; Intensity: zone B (β-lactame receptor (RSA) [3]; Ampi 4 ppb): 105; Intensity: zone B (β-lactame receptor (RSA) [3]; Ampi 5 ppb): 55; Intensity: zone B (β-lactame receptor (RSA) [3]; Ampi 10 ppb): 25; Intensity: zone T ([4]; Ampi 1 ppb): 380; Intensity: zone T ([4]; Ampi 2 ppb): 405; Intensity: zone T ([4]; Ampi 3 ppb): 408; Intensity: zone T ([4]; Ampi 4 ppb): 386; Intensity: zone T ([4]; Ampi 5 ppb): 397; Intensity: zone T ([4]; Ampi 10 ppb): 414
